Source: patent US12251449B2, “Synthetic multidomain peptide biomaterials that inhibit inducible nitric oxide synthase” (William Marsh Rice University, priority 2019, dated 2025)
*1 amine or outer side, *2 acyl side, *3 side chain or, on linkers, in order; H or OH if unused. Where a SMILES comes first, the peptide text is derived from it. [ ]: non-standard residue; d: D form. X1 = CC(=N)NCCCC[C@H](N[*:1])C(=O)[*:2]

Tests used:
iNOS = target: T1, iNOS (Mus musculus, UniProt P29477); assay: iNOS knockdown in vitro Greiss assay; format: cell-based
T1 construct: endogenous in cells; host or cells: RAW 264.7 murine macrophages stimulated with LPS and IFN-gamma
T1 sequence (P29477 1-1144): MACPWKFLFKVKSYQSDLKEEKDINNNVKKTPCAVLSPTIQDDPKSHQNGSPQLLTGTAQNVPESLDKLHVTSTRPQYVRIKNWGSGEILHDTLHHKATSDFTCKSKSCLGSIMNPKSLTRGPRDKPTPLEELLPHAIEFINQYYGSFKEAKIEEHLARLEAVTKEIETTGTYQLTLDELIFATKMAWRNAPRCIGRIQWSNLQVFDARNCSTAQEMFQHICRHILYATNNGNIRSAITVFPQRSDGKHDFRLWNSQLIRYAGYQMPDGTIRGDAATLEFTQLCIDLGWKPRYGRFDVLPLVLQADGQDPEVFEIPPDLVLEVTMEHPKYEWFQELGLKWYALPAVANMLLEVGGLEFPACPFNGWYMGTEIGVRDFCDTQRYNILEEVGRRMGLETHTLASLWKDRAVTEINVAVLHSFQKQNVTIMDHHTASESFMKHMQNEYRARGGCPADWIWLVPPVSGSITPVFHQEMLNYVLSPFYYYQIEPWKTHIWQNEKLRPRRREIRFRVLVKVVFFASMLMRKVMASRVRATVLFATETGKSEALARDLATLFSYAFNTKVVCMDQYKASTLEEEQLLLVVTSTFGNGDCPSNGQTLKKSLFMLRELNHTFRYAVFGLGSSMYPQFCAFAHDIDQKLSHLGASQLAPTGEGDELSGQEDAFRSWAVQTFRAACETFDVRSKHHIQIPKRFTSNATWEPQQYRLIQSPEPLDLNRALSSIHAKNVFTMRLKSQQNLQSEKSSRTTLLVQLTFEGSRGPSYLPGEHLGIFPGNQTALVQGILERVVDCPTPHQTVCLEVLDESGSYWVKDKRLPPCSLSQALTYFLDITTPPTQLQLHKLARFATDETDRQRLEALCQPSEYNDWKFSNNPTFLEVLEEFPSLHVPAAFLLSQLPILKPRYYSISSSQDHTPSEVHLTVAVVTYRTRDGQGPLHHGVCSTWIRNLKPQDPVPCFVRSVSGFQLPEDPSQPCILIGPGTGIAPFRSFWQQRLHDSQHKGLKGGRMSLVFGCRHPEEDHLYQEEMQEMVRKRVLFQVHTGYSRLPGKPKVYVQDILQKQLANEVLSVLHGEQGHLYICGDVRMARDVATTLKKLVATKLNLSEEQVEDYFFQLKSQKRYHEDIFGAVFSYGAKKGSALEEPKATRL
Method: iNOS knockdown in vitro Greiss assay. To evaluate the iNOS knockdown efficacy of various materials, the following procedure was used to test % iNOS inhibition of RAW 264.7 cells stimulated with Lipopolysaccharide (LPS, Thermo Fisher Scientific, Rockford, IL) and recombinant mouse IFN-7 (Biolegend, San Diego, CA). RAW macrophages were prepared at a stock concentration of 2.5×10^6 cells/mL, and plated at 2.5×10^5 cells per well in 24-well plates. For samples testing the efficacy of 2-D surface cell culture, 200 μL of MDP hydrogels was applied to evenly coat the surface of each well before addition of cells. Each experimental condition was performed in triplicate. The following controls were included in every experiment, 1) media alone, 2) stimulated cells alone, and 3) unstimulated cells alone. To each well, stimulation media or normal media was then added based on experimental requirement. Stimulation media was prepared with LPS (final concentration 1 μg/mL) and IFN-7 (final concentration 100 U/mL). For samples testing material efficacy in solution (e.g. free L-NIL), after 6 hrs of incubation at 37° C. with 5% CO2 the desired concentration of inhibitor was added to achieve a range of concentrations between 1 μM and 1 mM.
In all cases after 24 hours from time of stimulation, samples of cell media were collected from each well after mixing media by pipetting before collection. Media samples were placed into a 96-well plate and centrifuged at 5000 rpm for 10 min. Supernatants were removed and placed in a new clear 96-well plate, and samples were immediately analyzed using a colorimetric Greiss Assay (Cayman Chemical, Ann Arbor, MI) to assess nitrite levels (Bryan & Grisham, 2007). Color was allowed to develop for 10 min following addition of Greiss reagents, and absorbance was read at 540 nm on a plate reader. Percent iNOS inhibition for each sample was calculated by first subtracting the absorbance of the media-only baseline, and then converting to a percent of maximum nitrite signal as determined by the internal standard of stimulated cells alone.

MOC1 cells = assay: Live-dead viability of MOC1 cells on L-NIL-MDP hydrogel; format: cell-based, mouse; details: cultured on hydrogel over 7 days
Method: Cell culture. The murine oral cancer cell line, MOC1 was provided by Dr. Ravindra Uppaluri (Dana-Farber Cancer Institute, Harvard University, Boston, MA) and maintained as previously described (Judd et al., 2012). For in vitro experiments, mouse MOC1 cells were cultured at 37° C. with 5% CO2 in media routinely used for maintaining this cell line (Judd et al., 2012). For live-dead viability studies done using 2-D culture, peptide hydrogel 70 μL in volume (thickness approximately 1.75 mm) were pipetted into the wells of Lab-Tek 16 well chamber slides (Thermo Fisher, Rochester, NY). The gels were pipetted carefully into the bottom of the wells, and the plates were gently tapped down onto the bench top before shear recovery to flatten the pipetted gels and facilitate uniform spreading of the material. After pipetting, time was allowed for the samples to shear recover (5-10 min) before the addition of 200 μL cell media and 5,000 MOC1 cells. Each time point (days 1, 3, 7) had separate slides prepared with duplicate gels. Cell media was replaced every 2 days, carefully pipetting to avoid dislodging the gel material. […] Image processing was done with NIS Elements (Nikon Instruments, Melville, NY), and Imaris Cell Counting software (Bitplane, Concord, MA) was used to quantify live-dead percentages.

SMILES: CC(=N)NCCCC[C@H](NC(=O)[C@H](CCCCNC(C)=N)NC(=O)[C@H](CC(C)C)NC(=O)[C@H](CO)NC(=O)[C@H](CC(C)C)NC(=O)[C@H](CO)NC(=O)[C@H](CC(C)C)NC(=O)[C@H](CO)NC(=O)[C@H](CC(C)C)NC(=O)[C@H](CO)NC(=O)[C@H](CC(C)C)NC(=O)[C@H](CO)NC(=O)[C@H](CC(C)C)NC(=O)[C@H](CO)NC(=O)[C@H](CCCCNC(C)=N)NC(=O)[C@H](CCCCNC(C)=N)NC(C)=O)C(N)=O [L-NIL-MDP] (Ac-[X1][X1]SLSLSLSLSLSL[X1][X1]-NH2)
- free L-NIL concentration giving a comparable level of iNOS inhibition (iNOS; hydrogel surface culture compared with free L-NIL in solution): ~100 µM
- iNOS inhibition (in words) (iNOS; stimulated RAW macrophages cultured on the hydrogel): greatest degree of iNOS inhibition
- viability of MOC1 cells (in words) (MOC1 cells): high viability
